From patent US20010011096A1, “Polycyclic thiazol-2-ylidene amines, processes for their preparation and their use as medicaments” (priority 1999, published 2001)
Where “and” joins values, the source holds several entries; their conditions need not be identical. Equal values may be shown once.

Experiments:
[1] = test system: male NMR^1 mice; experiment: Anorectic effect: consumption of condensed milk by fasted mice after administration by gavage; type: in vivo
Experimental: The anorectic effect was tested on male NMR^1 mice. After withdrawal of feed for 24 hours, the test product was administered by gavage. The animals were housed singly and had free access to drinking water and, 30 minutes after administration of the product, they were offered condensed milk. The consumption of condensed milk was determined, and the general behavior of the animals was inspected, every half hour for 7 hours. The measured milk consumption was compared with that of untreated control animals.

| melting point | SMILES | Reduction in the cumulative milk consumption as % of the controls ([1]; oral dose 50 mg/kg by gavage, compared with untreated control animals, 7 hours) | cumulative milk consumption by the treated animals ([1]; oral dose 50 mg/kg by gavage, feed withdrawn 24 hours, milk offered 30 minutes after administration, determined for 7 hours, 5 animals) | Remarks (general behavior / side effects of the animals) ([1]; oral dose 50 mg/kg, behavior inspected every half hour for 7 hours) |
| --- | --- | --- | --- | --- |
| 256 °C | Cl.Cn1c2c(sc1=NCC(=O)O)COc1ccc(F)cc1-2 |  |  |  |
| 250 to 252 °C and 251 °C | CN1C(=CN)SC2=C1c1ccc(Oc3ccc(Cl)cc3)cc1C2.Cl [Example 15, [6-(4-Chlorophenoxy)-3-methyl-3,8-dihydroindeno[1,2-d]thiazol-2-ylidene]methylamine hydrochloride] |  |  |  |
|  | Br.c1ccc(Oc2ccc3c(c2)CC2=C3N3CCN=C3S2)cc1 [Example 24, 7-Phenoxy-4H,9H-2,3-dihydroimidazo[2,1-b]indeno[1,2-d]thiazole hydrobromide] | 93% | 5/0.30 ml | none |
| 278 °C | Br.CN1C(=CN)SC2=C1c1ccc(Cl)cc1C2 |  |  |  |
| 231 °C and 230 to 233 °C | Br.CN=c1sc2c(n1C)-c1cccc(-c3ccc(C(F)(F)F)cc3)c1C2 |  |  |  |
